Measured values published in ChEMBL document CHEMBL1157622, “Synthesis and antiproliferative evaluation of certain indolo[3,2-c]quinoline derivatives” (Bioorg Med Chem, 2010).
Activity calls are given as the source filed them. No cut-off for these calls is given here.

Assays:
HeLa [1] = assay: Antiproliferative activity against human HeLa cells by MTT assay; format: functional, cell-based
[2] = Antiproliferative activity against human SKHep cells by MTT assay; format: functional, cell-based
PC-3 [3] = assay: Antiproliferative activity against human PC3 cells by MTT assay; format: functional, cell-based
A549 = assay: Antiproliferative activity against human A549 cells by MTT assay; format: functional, cell-based
Detroit 551 = assay: Antiproliferative activity against human Detroit 551 cells by MTT assay; format: cell-based
PC-3 [4] = assay: Cell cycle arrest in human PC3 cells by accumulation at subG1 phase at 0.1 uM after 48 hrs by propidium iodide staining-based flow cytometry (Rvb=0.8%); format: functional
PC-3 [5] = assay: Cell cycle arrest in human PC3 cells by accumulation at S phase at 0.3 uM after 48 hrs by propidium iodide staining-based flow cytometry (Rvb=11.2%); format: functional
PC-3 [6] = assay: Induction of apoptosis in human PC3 cells assessed as caspase 3 activation at 0.1 uM after 48 hrs by Western blot; format: functional, cell-based
HeLa [7] = assay: Antiproliferative activity against human HeLa cells assessed as reduction in colony size after 48 hrs by clonogenic assay; format: functional, cell-based
PC-3 [8] = assay: Cell cycle arrest in human PC3 cells by accumulation at G2/M phase at 0.3 uM after 48 hrs by propidium iodide staining-based flow cytometry (Rvb=19.4%); format: functional
HeLa [9] = assay: Antiproliferative activity against human HeLa cells assessed as reduction in colony number after 48 hrs by clonogenic assay; format: functional, cell-based
[10] = target: T1, DNA topoisomerase 1 (Homo sapiens) (UniProt P11387); assay: Inhibition of topoisomerase 1-mediated unwinding of supercoiled plasmid DNA at 0.1 to 1.0 uM
T1 sequence (whole entry): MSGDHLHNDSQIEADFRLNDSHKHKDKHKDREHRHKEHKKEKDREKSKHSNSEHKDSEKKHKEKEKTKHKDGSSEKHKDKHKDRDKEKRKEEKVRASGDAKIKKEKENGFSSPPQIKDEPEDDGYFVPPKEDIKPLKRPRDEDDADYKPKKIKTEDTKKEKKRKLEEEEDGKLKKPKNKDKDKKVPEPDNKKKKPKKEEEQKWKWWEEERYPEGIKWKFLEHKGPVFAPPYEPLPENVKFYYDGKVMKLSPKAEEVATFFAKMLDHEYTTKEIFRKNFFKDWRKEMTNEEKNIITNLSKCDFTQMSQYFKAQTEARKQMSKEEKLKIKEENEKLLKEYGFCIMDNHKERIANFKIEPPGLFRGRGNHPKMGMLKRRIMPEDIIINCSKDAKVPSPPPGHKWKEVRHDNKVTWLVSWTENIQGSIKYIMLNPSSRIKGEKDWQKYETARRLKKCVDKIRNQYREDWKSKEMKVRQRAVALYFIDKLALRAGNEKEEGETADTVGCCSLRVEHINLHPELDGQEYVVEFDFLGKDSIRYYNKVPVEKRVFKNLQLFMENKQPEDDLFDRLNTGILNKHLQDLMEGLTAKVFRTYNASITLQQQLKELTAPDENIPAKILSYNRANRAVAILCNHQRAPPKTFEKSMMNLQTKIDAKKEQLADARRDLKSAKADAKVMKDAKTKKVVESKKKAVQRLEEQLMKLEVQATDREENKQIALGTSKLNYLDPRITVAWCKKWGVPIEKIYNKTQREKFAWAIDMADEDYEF

PC-3 [11] = assay: Cell cycle arrest in human PC3 cells by accumulation at G1 phase at 0.1 uM after 48 hrs by propidium iodide staining-based flow cytometry (Rvb=68.4%); format: functional
PC-3 [12] = assay: Cell cycle arrest in human PC3 cells by accumulation at subG1 phase at 0.3 uM after 48 hrs by propidium iodide staining-based flow cytometry (Rvb=0.8%); format: functional
PC-3 [13] = assay: Cell cycle arrest in human PC3 cells by accumulation at G1 phase at 0.3 uM after 48 hrs by propidium iodide staining-based flow cytometry (Rvb=68.4%); format: functional
PC-3 [14] = assay: Induction of apoptosis in human PC3 cells assessed as gammaH2AX phosphorylation mediated DNA damage at 0.1 uM after 48 hrs by Western blot; format: functional, cell-based
HeLa [15] = assay: Antiproliferative activity against human HeLa cells at 0.3 to 1.0 uM after 48 hrs by MTT assay; format: functional
[16] = target: T1, DNA topoisomerase 1 (Homo sapiens); assay: Inhibition of topoisomerase 1-mediated unwinding of supercoiled plasmid DNA at 10 uM
PC-3 [17] = assay: Cell cycle arrest in human PC3 cells by accumulation at G2/M phase at 0.1 uM after 48 hrs by propidium iodide staining-based flow cytometry (Rvb=19.4%); format: functional
PC-3 [18] = assay: Cell cycle arrest in human PC3 cells by accumulation at S phase at 0.1 uM after 48 hrs by propidium iodide staining-based flow cytometry (Rvb=11.2%); format: functional
PC-3 [19] = assay: Induction of apoptosis in human PC3 cells assessed as PARP cleavage at 0.1 uM after 48 hrs by Western blot; format: functional, cell-based
[20] = target: DNA topoisomerase 2-alpha (Homo sapiens) (UniProt P11388); assay: Inhibition of DNA topoisomerase 2-mediated unwinding of supercoiled pBR322 DNA
DNA topoisomerase 2-alpha (Homo sapiens), sequence (P11388 whole entry): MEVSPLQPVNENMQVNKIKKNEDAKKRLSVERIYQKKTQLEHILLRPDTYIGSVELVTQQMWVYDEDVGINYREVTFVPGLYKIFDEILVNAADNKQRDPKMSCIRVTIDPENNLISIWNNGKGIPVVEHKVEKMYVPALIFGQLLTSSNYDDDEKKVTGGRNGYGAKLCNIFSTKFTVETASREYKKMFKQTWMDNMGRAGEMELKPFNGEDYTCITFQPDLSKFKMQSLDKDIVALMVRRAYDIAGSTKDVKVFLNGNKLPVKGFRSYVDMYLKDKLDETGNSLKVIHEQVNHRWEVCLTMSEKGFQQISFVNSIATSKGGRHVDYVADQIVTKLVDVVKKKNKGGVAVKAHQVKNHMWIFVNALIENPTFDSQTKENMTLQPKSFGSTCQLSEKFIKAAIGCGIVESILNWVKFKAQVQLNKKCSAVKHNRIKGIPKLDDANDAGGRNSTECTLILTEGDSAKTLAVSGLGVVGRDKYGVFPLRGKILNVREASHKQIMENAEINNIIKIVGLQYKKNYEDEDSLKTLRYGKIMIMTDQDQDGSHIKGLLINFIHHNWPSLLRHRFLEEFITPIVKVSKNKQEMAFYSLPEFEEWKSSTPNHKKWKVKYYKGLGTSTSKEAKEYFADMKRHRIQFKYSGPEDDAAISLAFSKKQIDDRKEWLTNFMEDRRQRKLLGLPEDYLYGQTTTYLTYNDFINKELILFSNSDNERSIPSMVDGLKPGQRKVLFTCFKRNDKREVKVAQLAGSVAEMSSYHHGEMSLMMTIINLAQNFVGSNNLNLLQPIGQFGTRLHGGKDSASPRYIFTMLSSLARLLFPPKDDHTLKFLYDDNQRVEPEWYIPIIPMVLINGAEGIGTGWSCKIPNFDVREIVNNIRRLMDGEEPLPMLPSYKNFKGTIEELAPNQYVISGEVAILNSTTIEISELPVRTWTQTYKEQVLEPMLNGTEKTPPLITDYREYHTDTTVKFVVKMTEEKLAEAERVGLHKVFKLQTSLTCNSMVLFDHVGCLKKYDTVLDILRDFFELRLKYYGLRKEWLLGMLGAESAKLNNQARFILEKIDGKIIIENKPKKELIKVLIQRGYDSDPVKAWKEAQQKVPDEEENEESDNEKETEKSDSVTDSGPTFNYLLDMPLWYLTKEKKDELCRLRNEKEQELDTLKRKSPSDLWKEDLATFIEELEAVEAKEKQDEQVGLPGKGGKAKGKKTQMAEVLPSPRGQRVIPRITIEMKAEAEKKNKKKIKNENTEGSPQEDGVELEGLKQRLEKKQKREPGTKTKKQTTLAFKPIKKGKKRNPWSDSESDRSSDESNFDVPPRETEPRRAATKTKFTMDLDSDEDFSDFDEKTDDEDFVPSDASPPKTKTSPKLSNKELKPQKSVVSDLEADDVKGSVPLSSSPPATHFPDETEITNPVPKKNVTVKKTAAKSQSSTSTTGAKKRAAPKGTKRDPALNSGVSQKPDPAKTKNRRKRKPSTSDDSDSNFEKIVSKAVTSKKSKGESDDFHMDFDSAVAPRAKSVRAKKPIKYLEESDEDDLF

Structure (SMILES)	IC50 (HeLa [1]) [µM]	IC50 [2] [µM]	IC50 (PC-3 [3]) [µM]	IC50 (A549) [µM]	IC50 (Detroit 551) [µM]	also measured
Oc1ccc(CCNc2nc3ccc(F)cc3c3[nH]c4ccccc4c23)cc1	1.33	7.78	6.32	9.19		
CN(C)CCNc1nc2ccccc2c2[nH]c3ccccc3c12	0.61	1.6	5.79	0.83	2.21	
Oc1ccccc1Nc1nc2ccccc2c2[nH]c3ccccc3c12	4.69	21.9	> 30	17.7		
c1ccc(Nc2nc3ccccc3c3[nH]c4ccccc4c23)cc1	> 30	> 30	> 30	> 30		
CN(C)CCCNc1nc2ccccc2c2[nH]c3ccccc3c12	0.85	0.79	3.65	0.5	2.18	
Oc1ccc(CCNc2nc3ccccc3c3[nH]c4ccccc4c23)cc1O	3.77	6.66	15.2	10.3		
OCCNCCNc1nc2ccc(F)cc2c2[nH]c3ccccc3c12	1.49	1.31	6.51	0.93		
Cl.c1ccc2c(c1)nc(NCCCNCCCNc1nc3ccccc3c3[nH]c4ccccc4c13)c1c3ccccc3[nH]c21	0.068	0.09	0.08	0.11	1.98	Activity (PC-3 [4]): 30.6%; Activity (PC-3 [5]): 2.7%; Activity (PC-3 [6]): Active; Activity (HeLa [7]): Dose-dependent effect; Activity (PC-3 [8]): 8.7%; Activity (HeLa [9]): Dose-dependent effect; inhibition [10]: inactive; Activity (PC-3 [11]): 40.3%; Activity (PC-3 [12]): 72.6%; Activity (PC-3 [13]): 15.8%; Activity (PC-3 [14]): Active; inhibition (INH) (HeLa [15]): 95%; inhibition [16]: Active; Activity (PC-3 [17]): 24.1%; Activity (PC-3 [18]): 4.5%; Activity (PC-3 [19]): Active; inhibition [20]: Dose-dependent effect
COc1cccc2c1C(=O)c1c(O)c3c(c(O)c1C2=O)C[C@@](O)(C(=O)CO)C[C@@H]3O[C@H]1C[C@H](N)[C@H](O)[C@H](C)O1 [DOXORUBICIN]	0.33		1.76			
Fc1ccc2nc(NCCN3CCOCC3)c3c4ccccc4[nH]c3c2c1	4.32	5.29	6.84	6.73		
Oc1cccc(Nc2nc3ccccc3c3[nH]c4ccccc4c23)c1	10.3	7.23	18.4	10.3	42.5	
NCCNCCNc1nc2ccccc2c2[nH]c3ccccc3c12	0.65	2.17	7.98	1.03	3.88	
CN(CCCNc1nc2ccccc2c2[nH]c3ccccc3c12)CCCNc1nc2ccccc2c2[nH]c3ccccc3c12	0.89	0.28	2.01	0.43	2.14	
COc1ccc(Nc2nc3ccccc3c3[nH]c4ccccc4c23)cc1	11.4	7.78	21	10.9		
OCCNc1nc2ccccc2c2[nH]c3ccccc3c12	0.62	1.02	5.65	0.99	3.15	
NCCCCCCNc1nc2ccccc2c2[nH]c3ccccc3c12	0.072	2.51	2.55	0.084		
COc1ccc(CCNc2nc3ccccc3c3[nH]c4ccccc4c23)cc1OC	0.52	5.83	8.98	5.39	19.3	
OCCNCCNc1nc2ccccc2c2[nH]c3ccccc3c12	0.74	0.72	5.81	0.7	1.74	
c1ccc2c(c1)nc(NCCN1CCOCC1)c1c3ccccc3[nH]c21	0.87	1.29	2.84	1.13		
Fc1ccc2nc(NCCN3CCNCC3)c3c4ccccc4[nH]c3c2c1	5.35	2.67	12.3	6.2		
c1ccc2c(c1)nc(NCCCCCCCNc1nc3ccccc3c3[nH]c4ccccc4c13)c1c3ccccc3[nH]c21	1.19	1.61	6.56	1.19		
Oc1ccc(Nc2nc3ccccc3c3[nH]c4ccccc4c23)cc1	1.54	5.7	5.43	3.87	25.4	
NCCCCCCCNc1nc2ccccc2c2[nH]c3ccccc3c12	2.67	2.54	6.25	2.23		
Oc1ccc(CCNc2nc3ccccc3c3[nH]c4ccccc4c23)cc1	0.59	5.24	8.94	5.74	4.3	
c1ccc2c(c1)nc(NCCN1CCNCC1)c1c3ccccc3[nH]c21	0.68	0.38	1.77	0.53	2.6	
c1ccc2c(c1)nc(NCCCCCCNc1nc3ccccc3c3[nH]c4ccccc4c13)c1c3ccccc3[nH]c21	0.31	1.47	0.59	0.5		
